Measurements from publication PMC10336128, “In vitro efficacy of different PEGylation designs on cathelicidin-like peptide with high antibacterial and antifungal activity” (Scientific Reports, 2023).
Where two headings read alike, the source gives them in different places. No end group written: not given here.

Legend:
human erythrocytes [1] = assay: Cell-associated hemolytic activity assay (with S. aureus ATCC 25923); format: cell-based; settings: human erythrocytes plus S. aureus ATCC 25923 (5 µL of 1.5 × 10^6 CFU/mL), tris-saline, 37 °C, read at 414 nm, three replicates
Method: (§1) 300 µL of fresh human blood (Acibadem Mehmet Ali Aydinlar University, Istanbul, Turkey) was suspended in 20 mL of sterile tris-saline (150 mM NaCl, 10 mM Tris, pH 7.2) solution and centrifuged 3 times at 1500 rpm for 5 min. Pellet was dissolved with 100 mL of tris-saline and 100 µL blood mix was added into each well of a round-bottom 96-well plate. Serial peptide/conjugate dilutions (1024–0.5 µg/mL) prepared in tris-saline (100 µL of total volume) in triplicate were added on top of the blood mix. 10% DMSO prepared in Triton X-100 treated with blood mix used as a positive control, and the blood mix itself was used as a negative control. The samples were kept on separate round-bottom 96-well plates at 37 °C for 30 min and 1 h, respectively, to examine two different conditions. After incubations, the 96-well plates were centrifuged at 1500 rpm for 10 min. The supernatants were then transferred into a new round-bottom 96-well plate for measurement at 414 nm using a microplate reader. The lysis percentage of the peptide/conjugate was calculated using Eq. (1) as follows:1 Hemolysis%=Sample414nm-Negativecontrol414nm/Positivecontrol414nm-Negativecontrol414nm×100
S. aureus ATCC 25923 bacterial solution in MHB was prepared as in the minimum inhibitory concentration (MIC) experiment. […]

human erythrocytes [2] = assay: Hemolytic activity assay; format: cell-based
Method: as §1

S. aureus ATCC 25923 = assay: microbe, parasite or virus in culture; format: cell-based, Staphylococcus aureus
Method: (§2) Staphylococcus aureus (S. aureus ATCC 25923), Escherichia coli (E. coli ATCC 25922), Pseudomonas aeruginosa (P. aeruginosa ATCC 27853), Candida albicans (C. albicans ATCC 10231), methicillin-resistant S. aureus (MRSA, ATCC 33591) and vancomycin-resistant Enteroccus faecium (VRE-faecium, ATCC BAA-2316) were grown in MHA at 37 °C, overnight. A colony was then selected and transferred to MHB. Each bacterial solution in the MHB was adjusted to 0.5 McFarland with OD600 value between 0.08 and 0.1 using UV–Vis spectrophotometer (NanoDrop™ One/OneC Microvolume, Thermo Scientific). Afterward, 0.5 McFarland bacteria cultures were diluted in MHB at a ratio of 1:100. The peptide/conjugate concentration was quantified using a UV–Vis spectrophotometer at 214 nm. Serial dilutions of peptide and conjugates (1024–0.5 µg/mL) were prepared in MHB with a total volume of 95 µL in a round-bottom 96-well plate. Of the prepared bacterial suspensions, 5 µL was added into sample dilutions in each prepared well. Ampicillin (GeneMark) was used as a positive control and bacterial solution alone was used as a negative control. All 96-well plates were incubated overnight at 37 °C, and all samples were prepared in triplicate. Then, samples were measured at 600 nm using a microplate reader (Gen5 Synergy HT BioTek, USA)[31].

MTT cytotoxicity assay = format: cell-based; settings: for CC50 at 24 h: human, HaCaT keratinocyte cells; for IC50 at 24 h: mouse
Method: Human skin keratinocyte (HaCaT, HEKa, PCS-200-011™, ATCC) and mouse embryonic fibroblast (3T3, CRL-1658™, ATCC) cells were counted to 5 × 10^4 cells/well in 100 µL of DMEM containing 10% FBS, and 1% Pen/Strep antibiotics were placed in a flat-bottom 96-well plate and incubated in 5% CO2 at 37 °C. After 24 h, the medium on the attached cells was discarded. Serial peptide/conjugate dilutions (1024–0.5 µg/mL) prepared in complete DMEM (100 µL of total volume) in triplicate were added to the cell-seeded plates and incubated in 5% CO2 at 37 °C for 24 h. Cytotoxicity was determined using the 3-(4, 5-dimethylthiazol-2-yl)-2, 5-diphenyltetrazolium bromide assay kit (MTT, Cell Proliferation Kit, Roche) following the kit procedure and measured at 550 nm and 690 nm using a microplate reader. Cytotoxicity was calculated according to the cell control samples in complete DMEM.

C. albicans ATCC 10231 = assay: microbe, parasite or virus in culture; format: cell-based, Candida albicans
Method: as §2

E. coli ATCC 25922 = assay: microbe, parasite or virus in culture; format: cell-based, Escherichia coli
Method: as §2

[3] = system: VRE-faecium ATCC BAA-2316; assay: organism not typed; format: cell-based, vancomycin-resistant Enteroccus faecium
Method: as §2

MRSA ATCC 33591 = assay: microbe, parasite or virus in culture; format: cell-based, methicillin-resistant S. aureus
Method: as §2

plasma proteases = format: in vitro ADME, human
Method: To separate human plasma, EDTA-treated fresh human blood from a healthy donor (Acibadem Mehmet Ali Aydinlar University, Istanbul, Turkey) was centrifuged at 1500 rpm for 5 min, and the supernatant was collected. The peptide and conjugates were mixed with human plasma to a final concentration of 0.1 mg/mL (1.7 µL, 2048 µg/mL sample completed with plasma) and incubated at 37 °C, 1500 rpm in a shaker. Aliquots were collected after 0 h, 6 h, and 24 h incubation and stored at – 20 °C[32]. 5 µL protease inhibitor was added onto 35 µL aliquots.
S. aureus ATCC 25923 was cultured in MHA overnight at 37 °C. A colony was then selected and transferred to MHB. The bacterial solution was adjusted to 0.5 McFarland with OD600 value between 0.08 and 0.1 using UV–Vis spectrophotometer and diluted to a 1:200 ratio in MHB. 5 µL of the bacterial suspension was added into serial dilutions of aliquots prepared in MHB (40 µL of total volume) in a round-bottom 96-well plate and incubated overnight at 37 °C. Afterward, 96-well plates were measured at 600 nm using a microplate reader. All samples were prepared in triplicate.

P. aeruginosa ATCC 27853 = assay: microbe, parasite or virus in culture; format: cell-based, Pseudomonas aeruginosa
Method: as §2

## RLLRLLLRLLR-NH2 [TN6]
Human erythrocytes [1]
  HC50, 60 min with S. aureus ATCC 25923: hemotoxic effect at all doses
Human erythrocytes [2]; human erythrocytes in tris-saline pH 7.2, 60 min, 37 °C, without bacteria, read at 414 nm, three replicates
  HC50 (dose killing 50% of the red blood cells), 60 min: hemotoxic effect at all doses
Human erythrocytes [2]; pH 7.2
  HC50 (dose killing 50% of the red blood cells), 60 min: toxic even at 1 µg/mL
  hemolysis, 30 min: well above the toxic dose (HC50)
S. aureus ATCC 25923; ATCC 25923
  Minimum Inhibitory Concentration: 1 µg/mL
MTT cytotoxicity assay
  CC50 at 24 h: 161 µg/mL
  IC50 at 24 h: 14.6 µg/mL
C. albicans ATCC 10231; ATCC 10231
  Minimum Inhibitory Concentration: 1 µg/mL
E. coli ATCC 25922; ATCC 25922
  Minimum Inhibitory Concentration: 1 µg/mL
[3]; ATCC BAA-2316
  Minimum Inhibitory Concentration: 1.56 µg/mL
MRSA ATCC 33591; ATCC 33591
  Minimum Inhibitory Concentration: 0.78 µg/mL
Plasma proteases; 0 h
  MIC after plasma proteases, 0 h: 2.56 µg/mL
Plasma proteases; 6 h
  MIC after plasma proteases, 6 h: 2.56 µg/mL
Plasma proteases; 24 h
  MIC after plasma proteases, 24 h: 5.12 µg/mL
P. aeruginosa ATCC 27853; ATCC 27853
  Minimum Inhibitory Concentration: 4 µg/mL

## GIGKFLHSAKKFGKAFVGEIMNS [Mag-2, reference compound]
MTT cytotoxicity assay; HaCaT cells, MTT, 24 h, 37 °C, DMEM 10% FBS, three replicates, maximum concentration tested 512 µg/mL, mass of whole conjugate, read-out: inhibitory concentration (IC50), cytotoxicity
  CC50 at 24 h: 258 µg/mL
MTT cytotoxicity assay; 3T3 cells, MTT, 24 h, 37 °C, DMEM 10% FBS, three replicates, mass of whole conjugate, read-out: inhibitory concentration (IC50), cytotoxicity
  IC50 at 24 h: 153 µg/mL

## CC1(C)S[C@@H]2[C@H](NC(=O)[C@H](N)c3ccccc3)C(=O)N2[C@H]1C(=O)O [Ampicillin, reference compound]
S. aureus ATCC 25923; Staphylococcus aureus, ATCC25923, S. aureus ATCC 25923, serial dilution in MHB, 96-well, overnight 37 °C, OD 600 nm, triplicate, same results in all replicates, mass of whole conjugate, read-out: Minimum Inhibitory Concentration
  MIC: 8 µg/mL
C. albicans ATCC 10231; Candida albicans, ATCC10231, C. albicans ATCC 10231, serial dilution in MHB, 96-well, overnight 37 °C, OD 600 nm, triplicate, same results in all replicates, mass of whole conjugate, read-out: Minimum Inhibitory Concentration
  MIC: 16 µg/mL
E. coli ATCC 25922; Escherichia coli, ATCC25922, E. coli ATCC 25922, serial dilution in MHB, 96-well, overnight 37 °C, OD 600 nm, triplicate, same results in all replicates, mass of whole conjugate, read-out: Minimum Inhibitory Concentration
  MIC: 32 µg/mL
[3]; VRE-faecium ATCC BAA-2316, serial dilution in MHB, 96-well, overnight 37 °C, OD 600 nm, triplicate, same results in all replicates, mass of whole conjugate, read-out: Minimum Inhibitory Concentration
  MIC: 16 µg/mL
MRSA ATCC 33591; Staphylococcus aureus, MRSA ATCC 33591, serial dilution in MHB, 96-well, overnight 37 °C, OD 600 nm, triplicate, same results in all replicates, mass of whole conjugate, read-out: Minimum Inhibitory Concentration
  MIC: 32 µg/mL
P. aeruginosa ATCC 27853; Pseudomonas aeruginosa, ATCC27853, P. aeruginosa ATCC 27853, serial dilution in MHB, 96-well, overnight 37 °C, OD 600 nm, triplicate, same results in all replicates, mass of whole conjugate, read-out: Minimum Inhibitory Concentration
  MIC: 256 µg/mL
